Activity calls are given as the source filed them. No cut-off for these calls is given here.
Tests used:
[1] = Cytotoxicity against human SK-MEL-2 cells after 48 hrs by SRB assay; format: functional, cell-based; conditions: SK-MEL-2, 48 h
MCF7 [2] = assay: Induction of apoptosis in human MCF7 cells assessed as necrotic cells at 10 uM after 72 hrs by Annexin V-FITC/propidium iodide based flow cytometric analysis (reference value: 3.48 %); format: functional
MDA-MB-231 [3] = assay: Induction of apoptosis in human MDA-MB-231 cells assessed as viable cells at 10 uM after 72 hrs by Annexin V-FITC/propidium iodide based flow cytometric analysis (reference value: 91.87 %); format: functional; conditions: MDA-MB-231, 72 h, read-out: Activity
[4] = Induction of apoptosis in human MDA-MB-231 cells assessed as upregulation of Bax expression up to 20 uM after 72 hrs by Western blot analysis; format: functional, cell-based
MDA-MB-231 [5] = assay: Induction of apoptosis in human MDA-MB-231 cells assessed as necrotic cells at 10 uM after 72 hrs by Annexin V-FITC/propidium iodide based flow cytometric analysis (reference value: 0.33 %); format: functional
MCF7 [6] = assay: Induction of apoptosis in human MCF7 cells assessed as early apoptotic cells at 10 uM after 72 hrs by Annexin V-FITC/propidium iodide based flow cytometric analysis (reference value: 1.14 %); format: functional
MCF7 [7] = assay: Induction of apoptosis in human MCF7 cells assessed as viable cells at 10 uM after 72 hrs by Annexin V-FITC/propidium iodide based flow cytometric analysis (reference value: 94.10 %); format: functional; conditions: MCF7, 72 h, read-out: Activity
MDA-MB-231 [8] = assay: Induction in apoptosis in human MDA-MB-231 cells assessed as decrease in mitochondrial membrane potential at 20 uM after 24 hrs by JC1 fluorescent dye based confocal microscopic analysis; format: functional, cell-based
MCF7 [9] = assay: Induction of apoptosis in human MCF7 cells assessed as late apoptotic cells at 10 uM after 72 hrs by Annexin V-FITC/propidium iodide based flow cytometric analysis (reference value: 1.28 %); format: functional
MCF7 [10] = assay: Induction of apoptosis in human MCF7 cells assessed as early apoptotic cells at 20 uM after 72 hrs by Annexin V-FITC/propidium iodide based flow cytometric analysis (reference value: 1.14 %); format: functional
MDA-MB-231 [11] = assay: Induction of apoptosis in human MDA-MB-231 cells assessed as necrotic cells at 5 uM after 72 hrs by Annexin V-FITC/propidium iodide based flow cytometric analysis (reference value: 0.33 %); format: functional
MDA-MB-231 [12] = assay: Induction of apoptosis in human MDA-MB-231 cells assessed as viable cells at 20 uM after 72 hrs by Annexin V-FITC/propidium iodide based flow cytometric analysis (reference value: 91.87 %); format: functional; conditions: MDA-MB-231, 72 h, read-out: Activity
MDA-MB-231 [13] = assay: Induction of apoptosis in human MDA-MB-231 cells assessed as downregulation of Bcl2 expression up to 20 uM after 72 hrs by Western blot analysis; format: functional, cell-based
MDA-MB-231 [14] = assay: Induction of apoptosis in human MDA-MB-231 cells assessed as early apoptotic cells at 5 uM after 72 hrs by Annexin V-FITC/propidium iodide based flow cytometric analysis (reference value: 7.73 %); format: functional
MCF7 [15] = assay: Induction of apoptosis in human MCF7 cells assessed as viable cells at 5 uM after 72 hrs by Annexin V-FITC/propidium iodide based flow cytometric analysis (reference value: 94.10 %); format: functional; conditions: MCF7, 72 h, read-out: Activity
[16] = Cytotoxicity against human A549 cells after 48 hrs by SRB assay; format: functional, cell-based; conditions: A549, 48 h
MDA-MB-231 [17] = assay: Induction of apoptosis in human MDA-MB-231 cells assessed as caspase-9 activation upto 20 uM after 72 hrs by Western blot analysis; format: functional, cell-based
MDA-MB-231 [18] = assay: Induction of apoptosis in human MDA-MB-231 cells assessed as late apoptotic cells at 10 uM after 72 hrs by Annexin V-FITC/propidium iodide based flow cytometric analysis (reference value: 0.07 %); format: functional
MDA-MB-231 [19] = assay: Induction of apoptosis in human MDA-MB-231 cells assessed as early apoptotic cells at 20 uM after 72 hrs by Annexin V-FITC/propidium iodide based flow cytometric analysis (reference value: 7.73 %); format: functional
MDA-MB-231 [20] = assay: Induction of apoptosis in human MDA-MB-231 cells assessed as late apoptotic cells at 20 uM after 72 hrs by Annexin V-FITC/propidium iodide based flow cytometric analysis (reference value: 0.07 %); format: functional
MDA-MB-231 [21] = assay: Induction of apoptosis in human MDA-MB-231 cells assessed as early apoptotic cells at 10 uM after 72 hrs by Annexin V-FITC/propidium iodide based flow cytometric analysis (reference value: 7.73 %); format: functional
MDA-MB-231 [22] = assay: Induction of apoptosis in human MDA-MB-231 cells assessed as late apoptotic cells at 5 uM after 72 hrs by Annexin V-FITC/propidium iodide based flow cytometric analysis (reference value: 0.07 %); format: functional
MCF7 [23] = assay: Induction of apoptosis in human MCF7 cells assessed as late apoptotic cells at 5 uM after 72 hrs by Annexin V-FITC/propidium iodide based flow cytometric analysis (reference value: 1.28 %); format: functional
MCF7 [24] = assay: Induction of apoptosis in human MCF7 cells assessed as necrotic cells at 20 uM after 72 hrs by Annexin V-FITC/propidium iodide based flow cytometric analysis (reference value: 3.48 %); format: functional
MDA-MB-231 [25] = assay: Induction of apoptosis in human MDA-MB-231 cells after 72 hrs by Annexin V-FITC/propidium iodide based flow cytometric analysis; format: functional, cell-based
MCF7 [26] = assay: Induction of apoptosis in human MCF7 cells assessed as late apoptotic cells at 20 uM after 72 hrs by Annexin V-FITC/propidium iodide based flow cytometric analysis (reference value: 1.28 %); format: functional
MDA-MB-231 [27] = assay: Induction of apoptosis in human MDA-MB-231 cells assessed as caspase-3 activation upto 20 uM after 72 hrs by Western blot analysis; format: functional, cell-based
MCF7 [28] = assay: Induction of apoptosis in human MCF7 cells assessed as necrotic cells at 5 uM after 72 hrs by Annexin V-FITC/propidium iodide based flow cytometric analysis (reference value: 3.48 %); format: functional
MDA-MB-231 [29] = assay: (§1) Cytotoxicity against human MDA-MB-231 cells assessed as reduction in cell viability after 72 hrs by WST1 assay; format: functional, cell-based
[30] = as §1; format: functional, cell-based; conditions: MDA-MB-231, 72 h
MCF7 [31] = assay: Cytotoxicity against human MCF7 cells assessed as reduction in cell viability after 72 hrs by WST1 assay; format: functional, cell-based
MCF7 [32] = assay: Induction of apoptosis in human MCF7 cells assessed as viable cells at 20 uM after 72 hrs by Annexin V-FITC/propidium iodide based flow cytometric analysis (reference value: 94.10 %); format: functional; conditions: MCF7, 72 h, read-out: Activity
MDA-MB-231 [33] = assay: Induction of apoptosis in human MDA-MB-231 cells assessed as viable cells at 5 uM after 72 hrs by Annexin V-FITC/propidium iodide based flow cytometric analysis (reference value: 91.87 %); format: functional; conditions: MDA-MB-231, 72 h, read-out: Activity
MCF7 [34] = assay: Induction of apoptosis in human MCF7 cells assessed as early apoptotic cells at 5 uM after 72 hrs by Annexin V-FITC/propidium iodide based flow cytometric analysis (reference value: 1.14 %); format: functional
MDA-MB-231 [35] = assay: Induction of apoptosis in human MDA-MB-231 cells assessed as necrotic cells at 20 uM after 72 hrs by Annexin V-FITC/propidium iodide based flow cytometric analysis (reference value: 0.33 %); format: functional
[36] = Cytotoxicity against human HCT15 cells after 48 hrs by SRB assay; format: functional, cell-based; conditions: HCT-15, 48 h
[37] = Cytotoxicity against human SKOV3 cells after 48 hrs by SRB assay; format: functional, cell-based; conditions: SK-OV-3, 48 h

CCOC(=O)/C=C/c1cc(O)c2c(c1)[C@@H](C(=O)OCC)[C@@H](c1ccc(O)c(O)c1)O2
IC50 [1]: 200 nM
Activity (MCF7 [2]): 9.3%
viability at 10 µM (MDA-MB-231 [3]): 77.1%
Activity [4]: Active
Activity (MDA-MB-231 [5]): 1.9%
Activity (MCF7 [6]): 0.7%
viability at 10 µM (MCF7 [7]): 88.9%
Activity (MDA-MB-231 [8]): Active
Activity (MCF7 [9]): 1.1%
Activity (MCF7 [10]): 1.22%
Activity (MDA-MB-231 [11]): 0.2%
viability at 20 µM (MDA-MB-231 [12]): 68.3%
Activity (MDA-MB-231 [13]): Active
Activity (MDA-MB-231 [14]): 6.73%
viability at 5 µM (MCF7 [15]): 91.5%
IC50 [16]: 1420 nM
Activity (MDA-MB-231 [17]): Active
Activity (MDA-MB-231 [18]): 1.5%
Activity (MDA-MB-231 [19]): 25.63%
Activity (MDA-MB-231 [20]): 3.17%
Activity (MDA-MB-231 [21]): 19.5%
Activity (MDA-MB-231 [22]): 0.1%
Activity (MCF7 [23]): 0.6%
Activity (MCF7 [24]): 12.46%
Activity (MDA-MB-231 [25]): Dose-dependent effect
Activity (MCF7 [26]): 1.38%
Activity (MDA-MB-231 [27]): Active
Activity (MCF7 [28]): 7.24%
Activity (MDA-MB-231 [29]): Dose-dependent effect
IC50 [30]: 7 µM
Activity (MCF7 [31]): Dose-dependent effect
viability at 20 µM (MCF7 [32]): 84.9%
viability at 5 µM (MDA-MB-231 [33]): 93%
Activity (MCF7 [34]): 0.68%
Activity (MDA-MB-231 [35]): 2.87%
IC50 [36]: 140 nM
IC50 [37]: 160 nM

Source: ChEMBL document CHEMBL3856246, “Pharbilignan C induces apoptosis through a mitochondria-mediated intrinsic pathway in human breast cancer cells” (Bioorg Med Chem Lett, 2016)
